From patent US20250281495A1, “METHODS FOR INHIBITING INFLAMMATION AND PROGRESSION OF ATHEROSCLEROTIC PLAQUES AND CARDIOVASCULAR EVENTS IN PATIENTS WITH CEREBRO- AND CARDIO-VASCULAR DISEASE” (ICAHN SCHOOL OF MEDICINE AT MOUNT SINAI, priority 2021, published 2025)

Test system: kinase phosphorylation (pCREB, pp38, pMAPKA2P, pS6, pERK1/2) in PBMCs
Test: CyTOF screening of candidate small molecules in healthy PBMCs stimulated with atherosclerotic plasma
Assay type: cell-based, human
Conditions: for reversal of the inflammatory signature activated by atherosclerotic plasma: CyTOF screening
Procedure: To test the efficacy of candidate small molecules in reversing immune response of PBMCs to atherosclerotic plasma, the inventors examined cell type-specific pharmacologic effects of selected candidate compounds. Using healthy PBMCs, the inventors assessed the activity of selected small molecules in the presence of atherosclerotic plasma stimulation that followed 30 minutes of pretreatment with each candidate compounds. Using CyTOF mass-cytometry, the inventors measured the specific inhibition of kinase phosphorylation (i.e., pCREB, pp38, pMAPKA2P, pS6, pERK1/2) in each cell type at the single cell level for each drug (FIGS. 8 and 9).

[1] = CD14+ and CD16+ monocytes and CD1c+ DC (these cells)
[2] = CD14+ and CD16+ monocytes and CD1c+ DC, atherosclerotic plasma
[3] = CD16+ monocytes and CD1c+ DC, atherosclerotic plasma

| Compound | ERK1/2 phosphorylation in response to atherosclerosis plasma [1] | p38 phosphorylation in response to atherosclerosis plasma [1] | CREB phosphorylation [2] | S6 phosphorylation [2] | MAPKA2P phosphorylation [3] | reversal of the inflammatory signature activated by atherosclerotic plasma | inhibition of most specific kinase phosphorylation activated by atherosclerosis plasma (cell-specificity for monocytes and CD1c+ DC, 30 minutes of pretreatment) | p38 phosphorylation (CD1c+ DC, atherosclerotic plasma) | ERK1/2 phosphorylation [3] | phosphorylation of major kinases (e.g., CREB and S6) implicated in the inflammatory transcriptional reprogramming (atherosclerotic plasma) |
| --- | --- | --- | --- | --- | --- | --- | --- | --- | --- | --- |
| CS(=O)(=O)O.Cn1cc(C2=C(c3cn(CCCSC(=N)N)c4ccccc34)C(=O)NC2=O)c2ccccc21 [Ro 31-8220 mesylate] | not inhibited | not inhibited | significant inhibition | significant inhibition | significant inhibition | reversed | significant inhibition |  |  |  |
| CC[C@H](C)C(=O)O[C@H]1CCC=C2C=C[C@H](C)[C@H](CC[C@@H]3C[C@@H](O)CC(=O)O3)[C@H]21 [Mevastatin] |  |  |  |  |  | did not fully reverse |  | inhibited | inhibited | did not affect |
